The values that follow come from patent US10035830B2, “Method for treatment of GM1 gangliosidosis” (Korea Research Institute of Bioscience and Biotechnology, priority 2014, dated 2018).

Test [1] deals with GM1-NPCs originated neurosphere. The test is described as follows: Recovery of GM1-NPCs/neurosphere morphology by the inhibition of inflammasome (phase-contrast microscopy). The test is classed as cell-based, human. The following applies: GM1-NPCs cultured with 1 μg/ml rhIL1RA or 10 μM Z-YVAD-FMK, 2~4 weeks; FIG. 30a. The protocol: To investigate the recovery of neural damage caused by the increased activation of inflammasome related metabolic pathway in GM1, GM1-NPCs were treated with the inflammasome inhibitors IL1β antagonist (rhIL1RA) and caspase-1 inhibitor (Z-YVAD-FMK), and then the morphology of GM1-NPCs was investigated.
Particularly, the differentiation of GM1-NPCs was induced by the same manner as described in Example <4-1>. Then, the induced GM1-NPCs were cultured in the culture medium respectively treated with 1 μg/ml rhIL1RA (R&D Systems, USA) or 10 μM Z-YVAD-FMK (Merck Millipore, Germany) in order to inhibit inflammasome therein. 2˜4 weeks later, the cultured GM1-NPCs originated neurosphere was obtained. The morphology of neurosphere was observed by phase-contrast microscopy.

A further test concerns GM1-NPCs. The test is described as follows: Gene expression pattern in GM1-NPCs treated with inflammasome inhibitor (microarray, qPCR). The following applies: for tendency of changed genes to recover to the normal gene expression pattern: GM1-NPCs treated with Z-YVAD-FMK (10 μM) or rhIL1RA (1 μg/ml), FIG. 31, 33. The test is classed as cell-based, human. On the procedure: Particularly, GM1-iPSCs were constructed by the same manner as described in Example 2 and the differentiation of GM1-NPCs was induced by the same manner as described in Example <4-1>. Then, RNA was extracted from GM1-fibroblasts, GM1-iPSCs, or GM1-NPCs by using RNAiso Plus (Takara, Japan) or RNeasy mini kit (Qiagen, USA) according to the manufacturer's protocol. Reverse transcription PCR (PT PCR) was performed using 1˜2 μg of the extracted RNA as a template with Superscript III (Invitrogen, USA) in order to synthesize cDNA of the cell genome. Upon completion of the RT-PCR, 10 μl of qPCR reaction mixture was prepared by mixing 0.2 μl of the reaction product above, 1 μM oligonucleotide primer, […] of FAST SYBR green master mix (Applied Biosystems, USA), and distilled water, which proceeded to qPCR using 7500 Fast Real-time PCR system (Applied Biosystems, USA). The expression of the control GAPDH gene was also confirmed by the same manner as described above to correct the expression level. Based on the expression level of GAPDH mRNA, the fold change of NESTIN, NCAM, PAX6, OTX2, or REX1 mRNA was calculated.
Particularly, GM1-iPSCs were constructed by the same manner as described in Example 2, and the differentiation of GM1-NPCs was induced therefrom by the same manner as described in Example <4-1>. Then, GM1-fibroblasts, GM1-iPSCs, and GM1-NPCs were obtained. Microarray was performed by using Low RNA input linear amplification kit, cRNA cleanup module, and Whole Human Genome Microarray 4×44K (Agilent Technology, USA) according to the manufacturer's protocol. The obtained microarray images were revised as signals corresponding to WT-fibroblasts, WT-iPSCs, and WT-NPCs.
Particularly, GM1-NPCs were differentiated according to the method described in Example <4-1>, and then treated with rhIL1RA or Z-YVAD-FMK by the same manner as described in Example <9-1>. Microarray was performed by the same manner as described in Example <7-1> in order to investigate the up- or down-regulation of the gene involved in inflammasome. […] WT-NPC was used as the normal control. As for the negative control, GM1-NPCs were treated with DMSO instead of rhIL1RA or Z-YVAD-FMK. The expression pattern (either up- or down regulation) and the mRNA expression level were investigated by the same manner as described above.
(In general: In qPCR the cycle at which signal appears reflects the starting amount.)

The mark [2] stands for this setting: GM1-NPCs treated with Z-YVAD-FMK (10 μM), FIG. 32.

In the case of `COC(=O)C[C@H](NC(=O)[C@H](C)NC(=O)[C@@H](NC(=O)C(Cc1ccc(O)cc1)NC(=O)OCc1ccccc1)C(C)C)C(=O)CF` (stereo partly drawn) [Z-YVAD-FMK, methyl(3S)-3-[(2S)-2-[(2S)-2-(2-{[(benzyloxy)carbonyl]amino}-3-(4-hydroxyphenyl)propanamido)-3-methylbutanamido]propanamido]-5-fluoro-4-oxopentanoate], in test [1], the “morphology of GM1-neurosphere” value is on record as “recovering the GM1 patient-specific cell morphology”. Also, the “tendency of changed genes to recover to the normal gene expression pattern” value with GM1-NPCs was “tendency to recover their gene expression patterns changed by GM1 mediated neural damage back to the normal pattern”. In addition, in the test with GM1-NPCs (setting [2]), the “increase of the reduced B4GALNT expression” value is given as 2.6 fold and the “reduction of GLB1 expression compared with that in GM1-NPCs” value stood at 47%. Further, in the test on GM1-NPCs (GM1-NPCs treated with Z-YVAD-FMK (10 μM), of total 27,375 oligo probe pairs, microarray, FIG. 31), the “oligo probe pairs displaying the changed expression pattern” value is 9.3%.

Turning to “rhIL1RA: interleukin 1-receptor antagonist protein, SEQ. ID. NO: 2; cat #280-RA-050 (rhIL-1ra), R&D systems”, in test [1], the “morphology of GM1-neurosphere” value is recorded as “recovering the GM1 patient-specific cell morphology”. Besides, the “tendency of changed genes to recover to the normal gene expression pattern” value with GM1-NPCs is given as “tendency to recover the abnormal gene expression in GM1 cells to the normal expression pattern”. Also, in the test with GM1-NPCs (GM1-NPCs treated with rhIL1RA (1 μg/ml), FIG. 33), the “genes displaying the changed expression pattern” value is listed as 3.6%.
